{
  "source": "patent US11964943B2",
  "about": "“3,5-diarylidenyl-n-substituted-piperid-4-one-derived inhibitors of Stat3 pathway activity and uses thereof” (priority 2017, dated 2024)",
  "key": {"[1]": {"system": "A2780-cisplatin resistant spheroids", "experiment": "CellTiter-Glo 3D cell viability assay, A2780-cisplatin resistant spheroids", "type": "cell-based", "conditions": "96 h exposure, 3D CellTiter-Glo", "experimental": "(§1) For cell spheroid formation, HCT116-oxaliplatin resistant cells, A2780-cisplatin resistant cells, and HT1080 cells were seeded in Corning® Spheroid opaque-walled 96 well Microplates (ultra-low attachment; Nuclon™ Sphera™, Thermofisher) at densities of 2000 cells/well in 100 μl of cell solution and allowed to grow for 4 days, before any manipulation.\n(§2) At the end of drug incubation, both the plates and the CellTitre-Glo® reagent (previously thawn overnight in the fridge) were equilibrated at room temperature for at least 30 min. Subsequently, 100 μl of cell solution were carefully removed from each well, without disrupting the spheroid and equal volume of CellTitre-Glo® reagent was added. Cell lysis was performed by vigorously shaking the plate for 5 min. To stabilize the luminescent signal, the plate was incubated in the dark at RT for another 30 min before luminescence was recorded on a plate reader. The cell viability of treated samples was normalised to the untreated controls.\n(§3) The cytotoxicity studies in spheroids were conducted using the CellTiter-Glo® 3D Cell viability assay (Promega) following the instructions of the manufacturer."}, "[2]": {"system": "HCT116-oxaliplatin resistant spheroids", "experiment": "CellTiter-Glo 3D cell viability assay, HCT116-oxaliplatin resistant spheroids", "type": "cell-based", "conditions": "96 h exposure, 3D CellTiter-Glo", "experimental": "as §1\nas §2, with “Spheroid cells were treated by adding 100 μl of 2-fold the desired compound concentration and incubated at 37° C. for 96 h. At” for “At”\nas §3"}, "[3]": {"system": "A2780-cisplatin resistant spheroids", "experiment": "Spheroid diameter measurement", "type": "cell-based", "conditions": "96 h", "experimental": "as §1\nThe diameters of spheroid cells were determined using Cell^F Imaging Software. A diameter corresponds to the mean value of one horizontal and one vertical measurement."}, "DU145 cells": {"system": "DU145 cells", "experiment": "SRB growth inhibition and combination index with cisplatin, DU145", "type": "cell-based", "experimental": "(§4) The affected fractions were calculated from the SRB or MTT assay absorbance values and were registered to derive the respective CI values and isobolograms. A CI value of less than 1 (one) indicates synergy.\n(§5) The SRB assay was used to assess cell growth inhibition by IE-8 alone and in combination with cisplatin. […] For combination studies drug treatments were sequential with IE-8 applied first followed by cisplatin for 1 h. […] Absorbance was read at 540 nm and results were normalized to untreated controls. For analysis of GC50 values and statistical significance, non-linear regression analysis with a comparison of fits was performed with the GraphPad Prism 6.0 software.\nas §5, with “Drug Combination studies. Sulforhodamine B (SRB) Cell Growth Inhibition Assay. The” for “The”, “8 h” for “IE-8”"}, "A549 cells": {"system": "A549 cells", "experiment": "SRB growth inhibition and combination index with cisplatin, A549", "type": "cell-based, human", "experimental": "as §4, §5\nas §5, with “Drug Combination studies. Sulforhodamine B (SRB) Cell Growth Inhibition Assay. The” for “The”, “8 h” for “IE-8”"}, "[4]": {"system": "HCT116-oxaliplatin resistant cells", "experiment": "Colony formation assay with oxaliplatin", "type": "cell-based", "conditions": "1 μM oxaliplatin alone, 10 days", "experimental": "HCT116-oxaliplatin res cells were seeded at 2000 cells/well in 6-well plates and allowed to adhere overnight. The next day, oxaliplatin and IE-8 were added simultaneously. First, the specific amount of cells solution was removed from each well and afterwards the same volume of the appropriate drug dilution was added to achieve the right concentration. IE-8 was diluted in DMA. Cells were also treated with Oxaliplatin and IE-8 alone. The plates were left the incubator and the cells were allowed to grow colonies for 10 days. After 10 days the entire cell solution was removed from each well, which was subsequently washed with 500 μl of PBS. 1 ml of cold 100% methanol was added and the plates were incubated for 30 minutes at 4 C. After a second wash, the cells were stained with 1 ml of […] staining dye for 2-3 minutes, rinsed with water, allowed to dry overnight and the colonies were quantified using a gel imaging system (Fusion Fx7) and its in-built colony counter software."}, "pStat3^Tyr705": {"system": "pStat3^Tyr705", "experiment": "Immunoblotting of phosphorylated Stat3 in cancer cells", "type": "cell-based, human", "conditions": "DU145 and A549 cells with constitutively active Stat3, 18 h", "experimental": "(§6) Whole cell lysates were prepared by incubation of harvested, trypsinised cells with CelLytic™ lysis buffer (Sigma-Aldrich) supplemented with 1× protease and 1× phosphatase inhibitors (Roche). Protein quantification was carried out using a protein assay kit (Bio-Rad). 40 μg of the lysates were denatured by heating for 5 min at 95° C. in sample buffer containing 100 mM Tris-Cl (pH 6.8), 4% SDS, 10% 2-mercaptoethanol, 20% glycerol, and 0.02% bromophenol blue. Precision Plus Protein Dual colour standards (Bio-Rad) were used as a molecular weight reference. For the detection of STAT3, pSTAT3, α/β tubulin, cleaved PARP, Bcl-2, Bcl-xL, FANCD2, BRCA1, EME1 and MUS81, proteins were separated on a NuPAGE 7% Tris-acetate gel (Life Technologies) and subsequently transferred to polyvinylidene difluoride membranes (Immobilon®-P transfer membrane; Millipore). […] Membranes were blocked for 1 h at ambient temperature in a blocking buffer containing 5% w/v Bovine Serum Albumin (BSA; Sigma-Aldrich) in 1×TBS, 0.1% Tween-20. All proteins were identified by incubation in a 1:1000 dilution of the respective polyclonal antibodies (Cell signaling) in blocking buffer overnight at 4° C. and subsequent incubation for 1 h with an anti-rabbit or anti-mouse secondary antibody (Cell signalling) at a dilution of 1:1000. The α/β tubulin (1:2000; Cell Signaling) and the anti-phospho-histone H2AX Antibody (1:500; Millipore) were used in the denoted dilutions. Antibody binding was visualized by enhanced chemiluminescence (Amersham) on autoradiography film (Kodak-X-Omat). Alternatively Images were captured by the GelDoc-It Imaging System Fusion Fx7 (Vilber Lourmat, Germany).\nas §6, with “Immunoblotting. Whole” for “Whole”, “CelLytic™ M” for “CelLytic™”, “pSTAT3, a/0” for “pSTAT3, α/β”, “in 1×TBS” for “in 1×TBS,”, “(Cell signalling)” for “(Cell signaling)”"}, "[5]": {"conditions": "cisplatin alone 1 h, 96 h total, SRB"}},
  "note": "Several values for one entry are separate records, joined by “and”; a condition that tells them apart may be missing. Equal values may be shown once.",
  "data": [
    {"smiles": "O=C1C(O)=C([C@H]2CC[C@H](c3ccc(Cl)cc3)CC2)C(=O)c2ccccc21", "note": "[Atovaquone, reference compound]", "values": [
      {"measurement": "IC50", "setting": "[1]", "result": "24.4 ± 3.36", "unit": "µM"},
      {"measurement": "IC50", "setting": "[2]", "result": 16.5, "unit": "µM"}
    ]},
    {"smiles": "N.N.[Cl][Pt][Cl]", "note": "[Cisplatin, reference compound]", "values": [
      {"measurement": "Diameter (μm)", "setting": "[3]; cisplatin 1.75 μM", "result": 1071.4, "unit": "μm"},
      {"measurement": "Diameter (μm)", "setting": "[3]; cisplatin 3.5 μM", "result": 1047.5, "unit": "μm"},
      {"measurement": "Diameter (μm)", "setting": "[3]; cisplatin 5.25 μM", "result": 916.4, "unit": "μm"},
      {"measurement": "Diameter (μm)", "setting": "[3]; cisplatin 7.0 μM", "result": 833.6, "unit": "μm"},
      {"measurement": "Diameter (μm)", "setting": "[3]; cisplatin 7.0 μM, listed as cisplatin", "result": 834, "unit": "μm"},
      {"measurement": "Diameter (μm)", "setting": "[3]; cisplatin 8.75 μM", "result": 713.0, "unit": "μm"},
      {"measurement": "IC50", "setting": "DU145 cells; [5]", "result": "49.2 µM and 49.3 µM"},
      {"measurement": "IC50", "setting": "A549 cells; [5]", "result": "77.8 µM and 64.6 µM"}
    ]},
    {"smiles": "CC1(C)C=C(CN2C/C(=C\\c3ccc(F)cc3)C(=O)/C(=C/c3ccc(F)cc3)C2)C(C)(C)N1O", "note": "[HO-3867, reference compound]", "values": [
      {"measurement": "IC50", "setting": "[1]", "result": "29.7 ± 7.81", "unit": "µM"},
      {"measurement": "IC50", "setting": "[2]", "result": 33, "unit": "µM"}
    ]},
    {"smiles": "O=C(O)C(=O)O.[NH-][C@@H]1CCCC[C@H]1[NH-].[Pt+2]", "note": "[Oxaliplatin, reference compound]", "values": [
      {"measurement": "number of colonies", "setting": "[4]", "result": "about 260"}
    ]},
    {"smiles": "O=[N+]([O-])c1ccc2c(c1)S(=O)(=O)C=C2", "note": "[Stattic]", "values": [
      {"measurement": "IC50", "setting": "[1]", "result": "9.14 ± 2.74", "unit": "µM"},
      {"measurement": "combination index analysis with cisplatin", "setting": "DU145 cells; stattic:cisplatin ratio 1:5", "result": "lower levels of synergy within a narrower range of doses"},
      {"measurement": "combination index analysis with cisplatin", "setting": "A549 cells; stattic:cisplatin ratio 1:5", "result": "lower levels of synergy"},
      {"measurement": "inhibition of Stat3 tyrosine (705) phosphorylation (pStat3)", "setting": "pStat3^Tyr705", "result": "much higher doses are required"}
    ]}
  ]
}
